According to article PMC10051310, “Antiproliferative Activity, Multikinase Inhibition, Apoptosis- Inducing Effects and Molecular Docking of Novel Isatin–Purine Hybrids” (Medicina, 2023):
Values belong to the compound of their own block, whether it stands above or below them.

Experiments:
[1] = system: MDA-MB-231; assay: MTT cytotoxicity assay, MDA-MB-231; conditions: Homo sapiens, MDA-MB-231, 24 h, read-out: In Vitro Cytotoxicity IC50 MDA-MB-231
Experimental: (§4) Sunitinib, a well-known multi-kinase inhibitor, was used as a reference compound.
(§5) After incubation for 48 h, the cells were treated with different concentrations of the synthesized hybrid compounds for 24 h. After the addition of 20 μL MTT (5 mg/mL), the plates were incubated for 4 h and then 100 μL Dimethyl sulfoxide (DMSO) was added to each well to dissolve the insoluble purple formazan formed. […] The relative cell viability percentage was calculated as (A570 of treated samples/A570 of untreated sample) × 100.

[2] = system: MCF-7; assay: MTT cytotoxicity assay, MCF-7; conditions: Homo sapiens, MCF7, 24 h, read-out: In Vitro Cytotoxicity IC50 MCF-7
Experimental: as §4, §5

[3] = system: HepG2; assay: MTT cytotoxicity assay, HepG2; conditions: Homo sapiens, HepG2, 24 h, read-out: In Vitro Cytotoxicity IC50 HepG2
Experimental: as §4, §5

[4] = system: HeLa; assay: MTT cytotoxicity assay, HeLa; conditions: Homo sapiens, 24 h, read-out: In Vitro Cytotoxicity IC50 HeLa
Experimental: as §4, §5

[5] = system: HepG2, MCF-7, MDA-MB-231 and HeLa cell lines; assay: MTT cytotoxicity assay, summary over all four cell lines; conditions: Homo sapiens, read-out: IC50 against all tested cell lines
Experimental: as §4, §5

[6] = target: T1, EGFR (Homo sapiens, UniProt P00533); assay: In vitro EGFR enzyme assay (ELISA kit); assay type: biochemical
T1 construct: purchased
T1 sequence (P00533 25-1210): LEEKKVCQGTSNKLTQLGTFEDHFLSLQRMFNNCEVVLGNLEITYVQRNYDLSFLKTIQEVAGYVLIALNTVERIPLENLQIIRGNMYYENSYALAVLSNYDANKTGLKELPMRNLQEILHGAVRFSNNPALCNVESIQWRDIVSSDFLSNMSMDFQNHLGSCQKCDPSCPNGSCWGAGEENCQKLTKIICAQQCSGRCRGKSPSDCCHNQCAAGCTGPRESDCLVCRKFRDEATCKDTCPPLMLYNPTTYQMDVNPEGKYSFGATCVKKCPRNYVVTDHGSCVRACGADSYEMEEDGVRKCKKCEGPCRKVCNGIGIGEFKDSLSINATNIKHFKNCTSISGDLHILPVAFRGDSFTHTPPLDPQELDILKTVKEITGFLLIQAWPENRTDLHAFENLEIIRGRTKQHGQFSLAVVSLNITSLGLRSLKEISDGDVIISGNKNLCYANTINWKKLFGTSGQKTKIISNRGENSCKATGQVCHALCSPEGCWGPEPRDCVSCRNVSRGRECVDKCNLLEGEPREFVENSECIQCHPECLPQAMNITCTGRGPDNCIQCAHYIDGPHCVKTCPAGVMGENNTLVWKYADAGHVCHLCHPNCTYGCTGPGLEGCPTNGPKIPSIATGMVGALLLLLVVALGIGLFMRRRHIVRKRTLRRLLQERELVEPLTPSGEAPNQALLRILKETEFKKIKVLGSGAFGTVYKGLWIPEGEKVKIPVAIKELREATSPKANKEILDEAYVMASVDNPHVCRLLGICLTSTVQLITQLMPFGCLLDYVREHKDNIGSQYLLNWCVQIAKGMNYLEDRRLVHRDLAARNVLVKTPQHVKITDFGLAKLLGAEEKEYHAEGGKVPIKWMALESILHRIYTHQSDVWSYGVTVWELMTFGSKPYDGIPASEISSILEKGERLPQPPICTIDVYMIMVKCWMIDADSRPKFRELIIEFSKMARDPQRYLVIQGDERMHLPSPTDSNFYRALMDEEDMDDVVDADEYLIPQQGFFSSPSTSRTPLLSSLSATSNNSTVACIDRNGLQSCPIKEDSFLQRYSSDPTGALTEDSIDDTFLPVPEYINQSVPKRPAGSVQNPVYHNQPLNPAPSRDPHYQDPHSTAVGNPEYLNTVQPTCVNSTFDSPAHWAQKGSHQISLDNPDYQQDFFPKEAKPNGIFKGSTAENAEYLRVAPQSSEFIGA
Experimental: (§1) A human ELISA kit (Enzyme-Linked Immunosorbent Assay) for each of the above-mentioned protein kinase enzymes was used in this assay. […] The mixture was then incubated at room temperature for 2.5 h, after which the wells were washed and 100 μL of the prepared biotin antibody was added and incubated for 1 h at room temperature. After another washing step, 100 μL of streptavidin solution was added and incubated for 45 min at room temperature. The wells were then washed for a third time and 100 μL of TMB Substrate reagent was added and incubated for 30 min at room temperature. Finally, 50 μL of the stop solution was added, and the absorbance was read immediately at 450 nm. A standard curve was plotted showing concentration on the X-axis and absorbance on the Y-axis.

[7] = target: T2, CDK2 (Homo sapiens, UniProt P24941); assay: In vitro CDK2 enzyme assay (ELISA kit); assay type: biochemical
T2 construct: purchased
Experimental: as §1

[8] = target: T3, Her2 (Homo sapiens, UniProt P04626); assay: In vitro Her2 enzyme assay (ELISA kit); assay type: biochemical
T3 construct: purchased
T3 sequence (P04626 23-1255): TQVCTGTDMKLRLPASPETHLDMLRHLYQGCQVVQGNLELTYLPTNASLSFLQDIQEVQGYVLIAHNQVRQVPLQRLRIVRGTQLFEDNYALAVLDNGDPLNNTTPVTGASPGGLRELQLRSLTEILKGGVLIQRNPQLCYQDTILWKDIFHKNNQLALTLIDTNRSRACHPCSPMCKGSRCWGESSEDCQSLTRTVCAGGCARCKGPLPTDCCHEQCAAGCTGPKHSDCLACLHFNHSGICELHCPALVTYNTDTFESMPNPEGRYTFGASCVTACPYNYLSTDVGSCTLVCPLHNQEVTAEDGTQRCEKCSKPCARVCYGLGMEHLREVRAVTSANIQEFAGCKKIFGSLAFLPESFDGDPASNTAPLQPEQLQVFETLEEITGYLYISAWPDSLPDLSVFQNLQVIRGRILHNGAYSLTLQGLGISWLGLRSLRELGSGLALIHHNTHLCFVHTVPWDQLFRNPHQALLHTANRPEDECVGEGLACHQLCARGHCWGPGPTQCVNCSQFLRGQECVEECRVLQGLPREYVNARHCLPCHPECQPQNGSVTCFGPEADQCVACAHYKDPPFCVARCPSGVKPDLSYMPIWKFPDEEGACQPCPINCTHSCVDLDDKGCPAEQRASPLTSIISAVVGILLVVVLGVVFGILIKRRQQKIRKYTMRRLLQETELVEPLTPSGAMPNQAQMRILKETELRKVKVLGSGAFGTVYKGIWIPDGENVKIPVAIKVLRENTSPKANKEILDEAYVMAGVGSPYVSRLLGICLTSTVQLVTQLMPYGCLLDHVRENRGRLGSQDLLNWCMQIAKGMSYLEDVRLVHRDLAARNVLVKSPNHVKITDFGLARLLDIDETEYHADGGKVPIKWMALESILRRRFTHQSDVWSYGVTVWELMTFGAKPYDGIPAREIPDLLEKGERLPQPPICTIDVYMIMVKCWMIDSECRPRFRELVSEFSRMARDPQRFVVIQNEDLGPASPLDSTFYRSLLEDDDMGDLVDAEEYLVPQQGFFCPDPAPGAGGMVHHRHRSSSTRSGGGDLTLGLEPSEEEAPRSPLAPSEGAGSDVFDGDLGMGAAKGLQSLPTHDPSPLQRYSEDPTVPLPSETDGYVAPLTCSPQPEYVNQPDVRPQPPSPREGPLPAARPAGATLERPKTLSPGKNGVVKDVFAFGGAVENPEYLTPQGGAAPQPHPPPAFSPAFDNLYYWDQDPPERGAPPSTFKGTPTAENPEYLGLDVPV
Experimental: as §1

[9] = system: HepG2 cells; assay: Annexin V/propidium iodide apoptosis flow cytometry; assay type: cell-based, human; conditions: HepG2, 9.61 μM, 24 h
Experimental: On the other hand, an Annexin V/propidium iodide (PI) double staining assay was conducted to identify the mode of cell death promoted by compound 15 (9.61 μM) following 24 h incubation with HepG2 cells.
Flow cytometry cell apoptosis analysis was conducted to examine the apoptotic effect of the synthesized compounds using the Annexin V-FITC cell apoptosis detection kit (Biovision, K101-100). First, HepG2 cells in a density of 2 × 10^5 were seeded in 6-well plates and incubated for 24 h. The cells were then treated with 9.61 µM compound 15 for 24 h. The treated cells were then detached with trypsin (5 min, 37 °C), collected by centrifugation (5 min, 300× g), washed twice with PBS, and resuspended in 0.1 mL of a 1X binding buffer. After that, the cells were double-stained with 5 μL Annexin V-FITC and 5 μL PI in the dark at room temperature for 15 min. The stained cells were evaluated using an Epics XL-MCL™ Flow Cytometer (Beckman Coulter, Apeldoorn, Netherlands) with an excitation wavelength of 488 nm and an emission wavelength of 530 nm, and the data were interpreted using the Flowing software (version 2.5.1, Turku Centre for Biotechnology, Turku, Finland).

[10] = target: T4, VEGFR2 (Homo sapiens, UniProt P35968); assay: In vitro VEGFR-2 enzyme assay (ELISA kit); assay type: biochemical
T4 construct: purchased
T4 sequence (P35968 20-1356): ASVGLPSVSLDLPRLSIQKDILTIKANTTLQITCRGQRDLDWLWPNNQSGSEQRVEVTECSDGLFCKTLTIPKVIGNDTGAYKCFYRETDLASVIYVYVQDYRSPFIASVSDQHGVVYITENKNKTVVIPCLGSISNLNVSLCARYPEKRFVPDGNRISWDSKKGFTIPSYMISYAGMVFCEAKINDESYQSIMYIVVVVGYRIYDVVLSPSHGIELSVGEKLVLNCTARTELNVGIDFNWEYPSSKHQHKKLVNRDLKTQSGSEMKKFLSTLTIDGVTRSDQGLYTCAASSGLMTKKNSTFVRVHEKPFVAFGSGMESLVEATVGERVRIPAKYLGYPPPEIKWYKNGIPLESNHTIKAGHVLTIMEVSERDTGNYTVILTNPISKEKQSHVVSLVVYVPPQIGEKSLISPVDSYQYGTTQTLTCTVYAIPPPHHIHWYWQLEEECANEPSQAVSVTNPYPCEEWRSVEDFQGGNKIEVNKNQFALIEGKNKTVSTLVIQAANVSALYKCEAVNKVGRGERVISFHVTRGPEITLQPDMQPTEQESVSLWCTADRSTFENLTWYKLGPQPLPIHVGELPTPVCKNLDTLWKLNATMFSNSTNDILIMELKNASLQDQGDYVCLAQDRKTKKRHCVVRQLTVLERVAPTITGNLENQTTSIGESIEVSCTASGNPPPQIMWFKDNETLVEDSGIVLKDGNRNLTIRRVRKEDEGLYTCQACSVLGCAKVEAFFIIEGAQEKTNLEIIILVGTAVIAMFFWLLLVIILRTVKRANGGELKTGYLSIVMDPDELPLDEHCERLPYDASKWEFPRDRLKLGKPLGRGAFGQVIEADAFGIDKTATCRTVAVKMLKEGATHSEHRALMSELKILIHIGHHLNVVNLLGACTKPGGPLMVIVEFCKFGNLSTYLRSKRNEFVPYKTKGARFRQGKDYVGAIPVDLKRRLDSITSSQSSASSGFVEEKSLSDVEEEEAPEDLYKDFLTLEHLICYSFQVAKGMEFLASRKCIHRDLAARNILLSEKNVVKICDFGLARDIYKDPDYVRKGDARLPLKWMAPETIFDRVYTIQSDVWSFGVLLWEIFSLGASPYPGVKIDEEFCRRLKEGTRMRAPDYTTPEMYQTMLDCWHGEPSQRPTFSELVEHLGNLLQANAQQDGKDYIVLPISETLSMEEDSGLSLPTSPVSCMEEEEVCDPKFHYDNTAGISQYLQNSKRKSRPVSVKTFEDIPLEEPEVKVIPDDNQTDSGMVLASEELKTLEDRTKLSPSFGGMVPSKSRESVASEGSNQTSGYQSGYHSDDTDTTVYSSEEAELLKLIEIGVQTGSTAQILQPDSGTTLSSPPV
Experimental: as §1

[11] = system: HepG2 cells; assay: Flow cytometry cell cycle analysis (propidium iodide); assay type: cell-based, human; conditions: HepG2, 9.61 μM, 24 h
Experimental: In addition, the cell cycle progression assay as described by Wang et al. was used to investigate the effect of compound 15 in HepG2 cells. The biological effect of compound 15 was measured by treating HepG2 cells with 9.61 μM of the compound for 24 h. The compound’s effect on cell cycle distribution was analyzed by comparing with untreated control cells (Table 3, Figure 6).
Flow cytometry analysis was carried out using an ab139418 Propidium Iodide flow cytometry kit/BD to detect the effect of the synthesized compound 15 on cell cycle distribution. First, HepG2 cell were seeded in 6-well plates at a density of 2 × 10^5/well and incubated for 24 h. HepG2 cells were then treated with 9.61 µM of compound 15 for 24 h. The treated cells were then fixed in 70% ethanol for 12 h at 4 °C, rinsed with cold PBS, incubated with 100 μL RNase A for 0.5 h at 37 °C, and stained with Propidium Iodide (400 μL) in the dark at RT for an extra 0.5 h. The stained cells were determined utilizing Epics XLMCL™ flow cytometer equipment (Beckman Coulter, Apeldoorn, Netherlands), and the results were collected and analyzed using Flowing software (version 2.5.1, Turku Centre for Biotechnology, Turku, Finland).

[12] = system: Caspase 3; assay: Caspase 3 protein level ELISA in HepG2 cells; assay type: cell-based, human; conditions: HepG2, 9.61 μM, 24 h
Experimental: (§2) In these assays, compound 15 was used at its cytotoxic concentration (9.61 μM) and incubated with HepG2 cells for 24 h.
(§3) HepG2 cells were seeded in 96-well plates in triplicate and incubated for 24 h. The incubated cells were then treated with compound 15 at different concentrations. Cells treated with 0.1% DMSO (V/V) served as control. After 24 h incubation, caspase 3 and 9, BAX and Bcl-2 levels were determined using ELISA assay kits KHO1091 (Invitrogen^TM, Grand Island, NY, USA), EIA-4860 (DRU International INC., Mountainside, NJ, USA), EIA-4487 (DRU International INC., Mountainside, NJ, USA) and 99-0042 (Invitrogen^TM, Grand Island, NY, USA), respectively, according to the manufacturers’ procedures.

[13] = system: Bcl-2; assay: Bcl-2 protein level ELISA in HepG2 cells; assay type: cell-based, human; conditions: HepG2, 9.61 μM, 24 h
Experimental: as §2, §3

[14] = system: Caspase 9; assay: Caspase 9 protein level ELISA in HepG2 cells; assay type: cell-based, human; conditions: HepG2, 9.61 μM, 24 h
Experimental: as §2, §3

[15] = system: BAX; assay: BAX protein level ELISA in HepG2 cells; assay type: cell-based, human; conditions: HepG2, 9.61 μM, 24 h
Experimental: as §2, §3

melting point: > 300 °C
Structure (SMILES): O=C1Nc2ccccc2C1=NNC(=O)c1ccc(Nc2ncnc3[nH]cnc23)cc1 [Compound 4, 4-((9H-purin-6-yl)amino)-N’-(2-oxoindolin-3-ylidene)benzohydrazide]
IC50 [1]: 59.7 ± 2.9 µM
IC50 [2]: 47.3 ± 3 µM
IC50 [3]: 54.6 ± 3.1 µM
IC50 [4]: 62.4 ± 3.4 µM

melting point: > 300 °C
Structure (SMILES): O=C1Nc2ccc(Cl)cc2C1=NNC(=O)c1ccc(Nc2ncnc3[nH]cnc23)cc1 [Compound 5, 4-((9H-purin-6-yl)amino)-N’-(5-chloro-2-oxoindolin-3-ylidene)benzohydrazide]
IC50 [1]: 82.1 ± 3.8 µM
IC50 [2]: > 100 µM
IC50 [3]: 88.1 ± 4 µM
IC50 [4]: > 100 µM

melting point: > 300 °C
Structure (SMILES): O=C1Nc2ccc(F)cc2C1=NNC(=O)c1ccc(Nc2ncnc3[nH]cnc23)cc1 [Compound 6, 4-((9H-purin-6-yl)amino)-N’-(5-fluoro-2-oxoindolin-3-ylidene)benzohydrazide]
IC50 [1]: 19.1 ± 1.4 µM
IC50 [2]: 22.3 ± 1.8 µM
IC50 [5]: 18.1 to 53.5 µM
IC50 [3]: 42.4 ± 2.7 µM
IC50 [4]: 30.7 ± 2.3 µM

melting point: > 300 °C
Structure (SMILES): Cc1ccc2c(c1)C(=NNC(=O)c1ccc(Nc3ncnc4[nH]cnc34)cc1)C(=O)N2 [Compound 7, 4-((9H-purin-6-yl)amino)-N’-(5-methyl-2-oxoindolin-3-ylidene)benzohydrazide]
IC50 [1]: 91.6 ± 4.5 µM
IC50 [2]: 76.4 ± 3.7 µM
IC50 [3]: 60.4 ± 3.2 µM
IC50 [4]: > 100 µM

melting point: > 300 °C
Structure (SMILES): COc1ccc2c(c1)C(=NNC(=O)c1ccc(Nc3ncnc4[nH]cnc34)cc1)C(=O)N2 [Compound 8, 4-((9H-purin-6-yl)amino)-N’-(5-methoxy-2-oxoindolin-3-ylidene)benzohydrazide]
IC50 [1]: 29.8 ± 2 µM
IC50 [2]: 40.6 ± 2.7 µM
IC50 [5]: 18.1 to 53.5 µM
IC50 [3]: 48.1 ± 2.9 µM
IC50 [4]: 53.5 ± 3.2 µM

melting point: > 300 °C
Structure (SMILES): O=C1Nc2ccc([N+](=O)[O-])cc2C1=NNC(=O)c1ccc(Nc2ncnc3[nH]cnc23)cc1 [Compound 9, 4-((9H-purin-6-yl)amino)-N’-(5-nitro-2-oxoindolin-3-ylidene)benzohydrazide]
IC50 [1]: 72.2 ± 3.4 µM
IC50 [2]: 65 ± 3.4 µM
IC50 [3]: 75.6 ± 3.5 µM
IC50 [4]: 84.6 ± 4.1 µM

melting point: > 300 °C
Structure (SMILES): O=C1Nc2ccccc2/C1=N\Nc1ncnc2[nH]cnc12 [Compound 11, (E)-3-(2-(9H-purin-6-yl)hydrazineylidene)indolin-2-one]
IC50 [1]: 24.8 ± 1.9 µM
IC50 [2]: 15.6 ± 1.3 µM
IC50 [3]: 12.9 ± 1 µM
IC50 [4]: 17.6 ± 1.4 µM

melting point: 296 to 298 °C
Structure (SMILES): O=C1Nc2ccc(Cl)cc2/C1=N\Nc1ncnc2[nH]cnc12 [Compound 12, (E)-3-(2-(9H-purin-6-yl)hydrazineylidene)-5-chloroindolin-2-one]
IC50 [1]: 41.3 ± 2.5 µM
IC50 [2]: 33 ± 2.3 µM
IC50 [5]: 18.1 to 53.5 µM
IC50 [3]: 26.4 ± 1.8 µM
IC50 [4]: 46.7 ± 2.8 µM

melting point: > 300 °C
Structure (SMILES): O=C1Nc2ccc(F)cc2/C1=N\Nc1ncnc2[nH]cnc12 [Compound 13, (E)-3-(2-(9H-purin-6-yl)hydrazineylidene)-5-fluoroindolin-2-one]
IC50 [1]: 45.2 ± 2.7 µM
IC50 [2]: 38.8 ± 2.5 µM
IC50 [5]: 18.1 to 53.5 µM
IC50 [3]: 31.7 ± 2.1 µM
IC50 [4]: 51.2 ± 3 µM

melting point: 294 to 296 °C
Structure (SMILES): Cc1ccc2c(c1)/C(=N\Nc1ncnc3[nH]cnc13)C(=O)N2 [Compound 14, (E)-3-(2-(9H-purin-6-yl)hydrazineylidene)-5-methylindolin-2-one]
IC50 [1]: 32.5 ± 2.2 µM
IC50 [2]: 27.5 ± 2.1 µM
IC50 [5]: 18.1 to 53.5 µM
IC50 [3]: 18.1 ± 1.3 µM
IC50 [4]: 43.5 ± 2.7 µM

IC50 [6]: 143 nM
IC50 [7]: 534 nM
IC50 [8]: 150 nM
IC50 [10]: 192 nM
Structure (SMILES): COc1ccc2c(c1)/C(=N\Nc1ncnc3[nH]cnc13)C(=O)N2 [Compound 15, (E)-3-(2-(9H-purin-6-yl)hydrazineylidene)-5-methoxyindolin-2-one]
IC50 [1]: 14.9 ± 1.2 µM
IC50 [2]: 10.8 ± 0.9 µM
IC50 [5]: 8.93 to 14.9 µM
Apoptosis: Late ([9]; control 0.19%): 12.58%
Apoptosis: Early ([9]; control 0.38%): 1.86%
Apoptosis: Necrosis ([9]; control 1.45%): 7.03%
viability at 9.61 µM ([9]; Homo sapiens, control 97.98%, read-out: Apoptosis: Viable): 78.5%
accumulation at pre-G1 compared to control cells [11]: 10 fold
Cell Cycle Distribution (%) % Pre-G1 ([11]; control 2.02): 21.47%
Cell Cycle Distribution (%) % G2/M ([11]; control 17.45): 6.38%
Cell Cycle Distribution (%) % S ([11]; control 38.16): 42.44%
Cell Cycle Distribution (%) % G0–G1 ([11]; control 44.39): 51.18%
Caspase 3 Expression ([12]; control 93.23 ± 15.5): 368.4 ± 20.7 pg/mL
Caspase 3 Fold ([12]; relative to control = 1): 3.95 fold
Bcl-2 Expression ([13]; control 10.67 ± 0.83): 4.593 ± 0.22 pg/mL
Bcl-2 protein level decrease ([13]; fold decrease versus control): 2.30 fold
Bcl-2 Fold ([13]; relative to control = 1): 0.43 fold
IC50 [3]: 9.61 ± 0.8 µM
Caspase 9 Expression ([14]; control 4.52 ± 1.27): 14.07 ± 0.58 pg/mL
Caspase 9 Fold ([14]; relative to control = 1): 3.11 fold
BAX Expression ([15]; control 83.88 ± 23): 279.1 ± 8.15 pg/mL
BAX Fold ([15]; relative to control = 1): 3.38 fold
IC50 [4]: 8.93 ± 0.8 µM

melting point: > 300 °C
Structure (SMILES): O=C1Nc2ccc([N+](=O)[O-])cc2/C1=N\Nc1ncnc2[nH]cnc12 [Compound 16, (E)-3-(2-(9H-purin-6-yl)hydrazineylidene)-5-nitroindolin-2-one]
IC50 [1]: 67.4 ± 3.2 µM
IC50 [2]: 58.3 ± 3.2 µM
IC50 [3]: 39.7 ± 2.5 µM
IC50 [4]: 69.5 ± 3.6 µM

Structure (SMILES): CCN(CC)CCNC(=O)c1c(C)[nH]c(/C=C2\C(=O)Nc3ccc(F)cc32)c1C [Sunitinib, reference compound]
IC50 [1]: 8.41 ± 0.7 µM
IC50 [2]: 5.19 ± 0.4 µM
IC50 [3]: 6.82 ± 0.5 µM
IC50 [4]: 7.48 ± 0.6 µM
